Data from PubChem BioAssay (NCI).
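Assay format: 96-well plates, 48-hour exposure. The concentration for 50% growth inhibition is given as GI50. At the TGI there is no net growth.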

Experiments:
Assay in all cases: NCI tumour cell line growth inhibition, 48 h
MOLT-4 leukemia = system: MOLT-4 leukemia
EKVX NSCLC = system: EKVX NSCLC
CCRF-CEM leukemia = system: CCRF-CEM leukemia
SK-MEL-2 melanoma = system: SK-MEL-2 melanoma
CAKI-1 renal = system: CAKI-1 renal
HOP-92 NSCLC = system: HOP-92 NSCLC
OVCAR-3 ovarian = system: OVCAR-3 ovarian
MDA-MB-231 breast = system: MDA-MB-231 breast
MCF7 breast = system: MCF7 breast
T-47D breast = system: T-47D breast

Structure (SMILES)	TGI (MOLT-4 leukemia)	TGI (EKVX NSCLC)	TGI (CCRF-CEM leukemia)	TGI (SK-MEL-2 melanoma)	TGI (CAKI-1 renal)	TGI (HOP-92 NSCLC)	TGI (OVCAR-3 ovarian)	GI50 (EKVX NSCLC)	GI50 (CCRF-CEM leukemia)	GI50 (SK-MEL-2 melanoma)	GI50 (CAKI-1 renal)	GI50 (MDA-MB-231 breast)	TGI (MDA-MB-231 breast)	GI50 (HOP-92 NSCLC)	GI50 (MCF7 breast)	TGI (MCF7 breast)	GI50 (OVCAR-3 ovarian)	GI50 (MOLT-4 leukemia)	GI50 (T-47D breast)	TGI (T-47D breast)
C=C(CN(CC(=C)C(=O)c1ccccc1)C(C)(C)C)C(=O)c1ccccc1	10.2 µM	44.4 µM	> 21 µM	35.3 µM	14.5 µM	15 µM	37.5 µM													
COc1cc2c3c(n(CCCN4CCN(C)CC4)c(=O)c2cc1OC)-c1cc2c(cc1C3=O)OCO2	0.0353 µM	41.1 µM	17.7 µM	> 100 µM	23.7 µM	46.9 µM	30.1 µM	17.7 µM	2.44 µM	> 100 µM	10.3 µM	15.3 µM	32.4 µM	19.8 µM	8.82 µM	64.8 µM	15.3 µM			
COc1ccc(NC(=O)C(=O)NNC(=O)c2sc(NNC(C)=O)nc2C)c([N+](=O)[O-])c1	85.1 µM	> 100 µM	61.7 µM	> 100 µM		> 100 µM	> 100 µM													
C/C=C(\C)C(=O)O[C@@H]1C(O)[C@H]2OC(COC(=O)CCC(=O)CCCCCC[C@H](CCCCC)O[C@@H]3OC(C)[C@H](OC(C)=O)C(O)[C@H]3O2)[C@H]1OC(=O)/C=C/c1ccccc1 (some centres not stated)	> 100 µM	> 87.9 µM	> 100 µM	4.27 µM		0.415 µM	13.7 µM	< 0.0267 µM	0.408 µM	0.322 µM		< 0.01 µM	< 0.0114 µM	< 0.01 µM	< 0.01 µM	17.3 µM	0.0284 µM	3.28 µM	< 0.01 µM	0.761 µM
O=C(O)c1cc2ccccc2c(N=Nc2c([N+](=O)[O-])cc([N+](=O)[O-])cc2S(=O)(=O)O)c1O	> 100 µM	> 100 µM	> 100 µM	> 100 µM	> 100 µM	> 100 µM	> 100 µM						> 100 µM							
COC(=O)C1=C(C(=O)OC)C23C=CC=CC24C(C(=O)OC)=C(C(=O)OC)C4C1C3 (configuration not stated)	> 100 µM	> 100 µM	> 100 µM	> 100 µM		> 100 µM	> 100 µM													
N#C/C(=C\c1ccc(Br)cc1)n1nnc2cccc(F)c21		3.02 µM	> 100 µM	5.14 µM	4.99 µM		2.15 µM	1.62 µM	0.444 µM	1.96 µM	2.05 µM	1.63 µM	3.46 µM		0.445 µM	1.98 µM	0.861 µM		1.08 µM	4.44 µM
CCCCn1c2c(c3ccccc3c1=O)C(=O)c1ccccc1-2		> 100 µM	> 100 µM	> 100 µM	> 100 µM	> 100 µM	> 100 µM						> 100 µM			> 100 µM				> 100 µM
Cc1ccc(S(=O)(=O)N2CCC3(C(/C=C/c4ccccc4)=Nc4ccccc43)C2c2ccccc2)cc1 (configuration not stated)		> 100 µM	> 100 µM		> 100 µM	> 100 µM	> 100 µM													
